The values below come from patent publication US20160102317A1, “PLANTS HAVING INCREASED TOLERANCE TO HERBICIDES” (BASF SE, priority 2013, published 2016).

Molecules are shown by their SMILES. “And” between values parts separate entries of the source, which are not always exact repeats. Equal values may be shown once.

Assay [1] deals with T1, Hordeum HPPD (SEQ ID: 2) F404L (Hordeum vulgare, UniProt O48604, A164G/F404L/R146V/R147D/R148G).
T1 construct: His (N); made in house; host or cells: E. coli BL21 (DE3)
T1 sequence (O48604 whole entry R146V/R147D/R148G/A164G/F404L): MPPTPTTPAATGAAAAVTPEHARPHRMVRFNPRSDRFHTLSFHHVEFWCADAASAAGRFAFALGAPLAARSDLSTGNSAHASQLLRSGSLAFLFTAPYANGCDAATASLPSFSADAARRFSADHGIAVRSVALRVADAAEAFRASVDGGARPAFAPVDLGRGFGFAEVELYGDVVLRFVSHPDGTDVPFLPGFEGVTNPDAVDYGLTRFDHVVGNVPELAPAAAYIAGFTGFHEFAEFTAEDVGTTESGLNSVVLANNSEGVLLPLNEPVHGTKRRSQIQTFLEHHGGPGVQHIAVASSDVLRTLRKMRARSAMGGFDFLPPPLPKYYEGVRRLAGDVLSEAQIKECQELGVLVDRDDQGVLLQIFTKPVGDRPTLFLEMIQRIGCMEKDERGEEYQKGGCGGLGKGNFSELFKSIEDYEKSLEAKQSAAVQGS
Nature of the assay: HPPD activity assay, in vitro characterization of HPPD mutants. In kind it is biochemical. To be noted: Table 16, Hordeum wild-type = 1. How it is done: (§1) HPPD produces homogentisic acid and CO2 from 4-hydroxyphenylpyruvate (4-HPP) and 02. The activity assay for HPPD is based on the analysis of homogentisic acid by reversed phase HPLC. The assay mixture can contain 150 mM potassium phosphate buffer pH 7.0, 50 mM L-ascorbic acid, 100 μM Catalase (Sigma-Aldrich), 1 μM FeSO4 and 0.2 units of purified HPPD enzyme in a total volume of 505 μl. 1 unit is defined as the amount of enzyme that is required to produce 1 nmol of HGA per minute at 20° C.
(§2) After a preincubation of 30 min the reaction is started by adding 4-HPP to a final concentration of 0.05 mM. The reaction is allowed to proceed for 45 min at room temperature. The reaction is stopped by the addition of 50 μl of 4.5 M phosphoric acid. The sample is filtered using a […] pore size PVDF filtration device.
(§3) 5 μl of the cleared sample is analyzed on an UPLC HSS T3 column (particle size 1.8 μm, dimensions 2.1×50 mm; Waters) by isocratic elution using 90% 20 mM NaH2PO4 pH 2.2, 10% methanol (v/v).
(§4) HGA is detected electrochemically at 750 mV (mode: DC; polarity: positive) and quantified by integrating peak areas (Empower software; Waters).
(§5) Inhibitors are dissolved in DMSO (dimethylsulfoxide) to a concentration of 0.5 mM. From this stock solution serial five-fold dilutions are prepared in DMSO, which are used in the assay. The respective inhibitor solution accounts for 1% of the assay volume. […] Activities are normalized by setting the uninhibited enzyme activity to 100%. IC50 values are calculated using non-linear regression.
(§6) Purified, mutant HPPD enzymes are obtained by the methods described above. Dose response and kinetic measurements are carried out using the described HPPD activity assay. Apparent michaelis constants (Km) and maximal reaction velocities (Vmax) are calculated by non-linear regression with the software GraphPad Prism 5 (Graph Pad Software, La Jolla, USA) using a substrate inhibition model. […] Weighted means (by standard error) of Km and IC50 values are calculated from at least three independent experiments.
(§7) Field performance of the optimized HPPD enzyme, which is used as a herbicide tolerance trait may depend not only on its lack of sensitivity towards HPPD inhibiting herbicides but also on its activity. To assess the potential performance of a herbicide tolerance trait a tolerance index (TI) is calculated using the following formula: […]
(§8) Easy comparison and ranking of each trait is enabled by normalizing tolerance indexes on Arabidopsis wild-type HPPD.

Assay [2] concerns the target T2, Hordeum HPPD (SEQ ID: 2) L320H, P321A (Hordeum vulgare, UniProt O48604, L320H/P321A).
T2 construct: His (N); made in house; host or cells: E. coli BL21 (DE3)
The description is as above. The assay is classed as biochemical. Conditions: Table 16, Hordeum wild-type = 1. As to the method:
as §1, §2, §3, §4, §5, §6, §7, §8

Assay [3] deals with T3, Hordeum HPPD (SEQ ID: 2) L320H (Hordeum vulgare, UniProt O48604, A164G/L320H/R146V/R147D/R148G).
T3 construct: His (N); made in house; host or cells: E. coli BL21 (DE3)
T3 sequence (O48604 whole entry R146V/R147D/R148G/A164G/L320H): as the sequence (O48604 whole entry R146V/R147D/R148G/A164G/F404L) above, with L320H, L404F counted along it
The description is as above. In kind it is biochemical. Conditions: Table 16, Hordeum wild-type = 1. How it is done:
as §1, §2, §3, §4, §5, §6, §7, §8

For assay [4], the target named is T4, Hordeum HPPD (SEQ ID: 2) L320Q (Hordeum vulgare, UniProt O48604, A164G/L320Q/R146V/R147D/R148G).
T4 construct: His (N); made in house; host or cells: E. coli BL21 (DE3)
T4 sequence (O48604 whole entry R146V/R147D/R148G/A164G/L320Q): as the sequence (O48604 whole entry R146V/R147D/R148G/A164G/F404L) above, with L320Q, L404F counted along it
The description is as above. The assay is classed as biochemical. To be noted: Table 16, Hordeum wild-type = 1. How it is done:
as §1, §2, §3, §4, §5, §6, §7, §8

Assay [5] concerns the target T5, Hordeum HPPD (SEQ ID: 2) L353M, P321R, L320Q (Hordeum vulgare, UniProt O48604, L320Q/L353M/P321R).
T5 construct: His (N); made in house; host or cells: E. coli BL21 (DE3)
The assay is described as above. The assay is classed as biochemical. To be noted: Table 16, Hordeum wild-type = 1. As to the method: as §1, §2, §3, §4, §5, §6, §7, §8

Assay [6] addresses T6, Hordeum HPPD (SEQ ID: 2) L353M, P321R, L320N (Hordeum vulgare, UniProt O48604, L320N/L353M/P321R).
T6 construct: His (N); made in house; host or cells: E. coli BL21 (DE3)
Described as above. In kind it is biochemical. Conditions: Table 16, Hordeum wild-type = 1. How it is done:
as §1, §2, §3, §4, §5, §6, §7, §8

The test system of assay [7] is Arabidopsis overexpression line AtHPPD (Seq ID: 53). Nature of the assay: Arabidopsis growth inhibition in 48-well plates, tolerance factor. In kind it is in vivo, Arabidopsis thaliana. Conditions: plant growth IC50 of transgenic / wild-type plants. From the text: Rows A-F are individual events. Non-transformed control plants are marked as wild-type (WT). The HPPD-inhibiting herbicide used refers to (NE)-8-chloro-N-(4-methoxy-1,2,5-oxadiazol-3-ylidene)-4,4-dimethyl-1,1-dioxo-2,3-dihydrothiochromene-7-carboxamide
Arabidopsis thaliana is transformed with HPPD or HST sequences by floral dip method as described by McElver and Singh (WO 2008/124495). Transgenic Arabidopsis plants are subjected to TaqMan analysis for analysis of the number of integration loci.
Depending on the species, the plants are kept at 10-25° C. or 20-35° C. The test period extends over 3 weeks. During this time, the plants are tended and their response to the individual treatments is evaluated. Herbicide injury evaluations are taken at 2 and 3 weeks after treatment. Plant injury is rated on a scale of 0 to 9, 0 being no injury and 9 being complete death. Tolerance to HPPD-inhibiting herbicides can also be assessed in Arabidopsis. In this case transgenic Arabidopsis thaliana plants are assayed for improved tolerance to HPPD-inhibiting herbicides in 48-well plates. […] Seven to ten days after seeding growth inhibition is evaluated by comparison to wild-type plants. Tolerance factor is calculated by dividing the plant growth IC50 value of transgenic plants containing a HPPD and/or HST sequence by that of wild-type plants.

T5 sequence (O48604 whole entry R146V/R147D/R148G/A164G/L320Q/P321R/L353M): as the sequence (O48604 whole entry R146V/R147D/R148G/A164G/F404L) above, with L320Q, P321R, L353M, L404F counted along it
T2 sequence (O48604 whole entry R146V/R147D/R148G/A164G/L320H/P321A): as the sequence (O48604 whole entry R146V/R147D/R148G/A164G/F404L) above, with L320H, P321A, L404F counted along it
T6 sequence (O48604 whole entry R146V/R147D/R148G/A164G/L320N/P321R/L353M): as the sequence (O48604 whole entry R146V/R147D/R148G/A164G/F404L) above, with L320N, P321R, L353M, L404F counted along it

Turning to `COc1no[nH]/c1=N/C(=O)c1ccc2c(c1Cl)S(=O)(=O)CCC2(C)C` [Inhibitor 1, (NE)-8-chloro-N-(4-methoxy-1,2,5-oxadiazol-3-ylidene)-4,4-dimethyl-1,1-dioxo-2,3-dihydrothiochromene-7-carboxamide], the “TI Inhibitor 1 (normalized tolerance index)” value in assay [1] amounted to 2.1; in assay [2] it was 0.5; in assay [3], 0.6; in assay [4], 0.1; in assay [5], 1.2; in assay [6], 0.2. In addition, in assay [7], the “Tolerance factor towards Inhibitor 1” value was determined as 6.4.

On to `Cc1c(C(=O)Nc2nnnn2C)ccc2c1C(=O)C(C)(C)CS2(=O)=O` [Inhibitor 2, 3,3,5-trimethyl-N-(1-methyltetrazol-5-yl)-1,1,4-trioxo-2H-thiochromene-6-carboxamide], for which the “TI Inhibitor 2 (normalized tolerance index)” value in assay [1] was 3 and 3.1; in assay [2], 3.6; in assay [3], 4.4; in assay [4], 1.4; in assay [5], 3.5 and 3.4; in assay [6] it was 3.5. For the same molecule, in assay [7], the “Tolerance factor towards Inhibitor 2” value was 3.
